Like-named read-outs stand apart in the source and are kept apart here.

Data set [1] relates to release of mediators, e.g. histamine and SRS-A. The conditions noted are these: administered to asthmatic patients prior to inhalation of specific antigens; cited from earlier work.
Data set [2] has as its system reagin-mediated rat Passive Cutaneous Anaphylaxis (PCA). The experiment in a line: reagin-mediated rat Passive Cutaneous Anaphylaxis (PCA) screening test. Type of data set: in vivo, rat (Sprague-Dawley). How it is done: The reagin-mediated rat Passive Cutaneous Anaphylaxis (PCA) screening test used to evaluate the present compounds is generally regarded as one of the best animal models for use in predicting the antiallergy activity of test compounds in man. Briefly, the method consists of passive sensitization of skin sites on the test animals with reaginic antibodies followed after 24 hours by administration of the test drug and antigen challenge. The allergic response is measured by use of Evans' blue dye and is evaluated by the spot diameter at the injection site. Details of the test are provided below.
A substituted ovalbumin antigen is used both as immunogen and challenging antigen. The antigen is prepared as follows: 500 mg. ovalbumin (EA) and 500 mg. K2 CO3 are dissolved in 25 ml. distilled H2 O and stirred at room temperature for 5 minutes. Five hundred (500) mg. dinitrobenzene sulfonic acid, Na^+ salt, (previously recrystallized from hot absolute ethanol) is then added slowly with continued stirring. The reaction mixture is then immediately placed in the dark and allowed to proceed for 2 hours with constant stirring. After 2 hours the mixture is placed in suitable dialysis tubing and dialyzed against 5 changes (4 liters each) of distilled H2 O at 5° C. After dialysis the product is lyophilized and stored at room temperature in a brown or amber container. The antigen obtained will appear as a light yellow, amorphous solid which is very soluble in water or saline. It is designated as DNP denatured ovalbumin (DNP-d EA).
Adult, male Sprague-Dawley rats are used as a source of reagin-rich antisera for the PCA model. Immunization is by a combination of DNP-d EA on Al (OH)3 gel and B. pertussis vaccine. Preparation of the DNP-d EA - gel immunogen is as follows: Dissolve the DNP-d EA in TBS so as to give a concentration of 10 mg./ml. Slowly add 1 ml. of this solution to 10 ml. Al(OH)3 gel (10 mg. solids/ml.) with constant stirring at room temperature. Stir the mixture an additional 30 minutes to insure a uniform adsorption of antigen on gel.
The resulting preparation is then used in combination with phase I B. pertussis vaccine to immunize male S/D rats as follows: For each rat administer 0.1 ml. DNP-d EA - gel suspension intramuscularly in each hind leg (200 μg DNP-d EA and 2 mg. gel total dose). Follow these injections by the intraperitoneal administration of 1.0 ml. B. pertussis vaccine (10-20 × 10^9 organisms). The use of light ether anesthesia during this procedure is recommended to insure proper intramuscular and intraperitoneal injections. Nine days following immunization (but no longer than 10) the animals are exsanguinated by cardiac puncture or abdominal aorta cannulation under ether or pentobarbital anesthesia. The collected whole blood is allowed to clot, the serum separated by centrifugation and the individual serum samples stored frozen until assayed for IgE content.
Individual serum samples should be screened for reaginic antibody concentration before being pooled with other sera, as not all rats respond to immunization procedures with reagin production. A 1:50 saline dilution of serum from each immunized rat is used for this purpose. Intradermal injections of 0.05 ml. of the diluted sera are made in the shaven backs of two small female recipient rats, 100-120 gms. Several serum samples can be tested simultaneously in recipient animals. After a 24 to 48 hour latent period antigen challenge is accomplished by […] administration to each rat of 1 mg. DNP-d EA in 0.5 ml. 0.5% Evans' blue dye in saline. Sera which show positive PCA reactions at the 1:50 dilution, as measured 20 to 30 minutes post-challenge are pooled, dispensed in small aliquots and stored at -70° C. or lower until used. Negative sera may be discarded.
The IgE titer of the antisera pool should then be determined. […]

For data set [3] the following is noted: cited from earlier work.

On to `O=C(O)c1cc(=O)c2c(OCC(O)COc3cccc4oc(C(=O)O)cc(=O)c34)cccc2o1` [DSCG, Disodium cromoglycate, reference compound], for which the “inhibition of release of mediators” value in data set [1] is “inhibits the release of mediators, e.g. histamine and SRS-A”. The ED50 in data set [2] (iv, Table I, i.v., compound dosed at time of challenge, solubilized in saline, read-out: ID50, DSCG, i.v. (Table I)) is 0.3 mg/kg; in data set [2] (po, Table I, p.o., 10 minutes prior to antigen challenge, esters suspended in Tween/CMC, read-out: ID50 (dose of compound that inhibits 50% of the response), ethyl esters, p.o.), greater than 30 mg/kg; in data set [2] (po, Table II, p.o., 10 minutes prior to antigen challenge, acids solubilized in aqueous sodium bicarbonate, read-out: ID50 (dose of compound that inhibits 50% of the response), 5-carboxylic acids, p.o.), greater than 30 mg/kg. In data set [3], the oral absorption entry is on record as “not orally absorbed”.

These data come from patent publication US4031093A, “1,6-Dihydro-6-oxo-2-(ortho-substituted phenyl)pyrimidine-5-carboxylic acid derivatives” (priority 1976, dated 1977).
